# Legend:
# [1] = test system: KOPN8 cells; test: alamarBlue cytotoxicity assay, 48h; type: cell-based, human; settings: RPMI + 10% FBS
# Experimental: (§1) Following subtraction of background fluorescence from all wells, fluorescence of drug-treated cells was normalized to that of vehicle (<0.5% DMSO)-treated cells to determine the effect of each drug concentration on viability. Each cell line was tested in triplicate and in at least three independent experiments. IC50 (concentration that inhibits cell growth by 50%) values were calculated using CompuSyn software (ComboSyn, Paramus, NJ). […] In addition several cell lines were initially cultured and tested in alternative media (Supplementary Table S2). […] Colony counts were normalized to vehicle-treated controls (100%). Three independent experiments were performed.
# (§2) In most experiments, cytotoxicity was assessed using alamarBlue assays (Life Technologies, Grand Island, NY). In experiments using NAC and DFO, which can interfere with alamarBlue assay performance, Trypan Blue dye exclusion was used instead. […]
# (§3) experiments performed in triplicate. […] Age refers to age […]
# (§4) at the time of leukemia diagnosis of the patient from whom the cell line was derived. (–) Indicates information unavailable.
# (§5) *Cell lines with FLT3/ITD mutations.
# (§6) *The MV-4–11 cell line was derived from a patient with a biphenotypic B-myelomonocytic leukemia; K562 was derived […]
# (§7) 1A. p53 status was obtained from http://cancer.sanger.ac.uk/cell_lines/cbrowse/all and http://p53.free.fr/Database/Cancer_ cell_lines/Leukemia_cancer. html. WT: wild type. Mut: mutant. SM: single mutation. DM: double mutation. MM: multiple mutations. Fs: Frameshift mutation. Null: protein expression undetectable. […]
# (§8) measured via alamarBlue assay. […]
# [2] = test system: MOLM14 cells; test: alamarBlue cytotoxicity assay, 48h; type: cell-based, human; settings: for IC50: MOLM14 (AML), 48h, RPMI + 10% FBS
# Experimental: as §1, §2, §3, §4, §5, §6, §7, §8
# [3] = test system: MOLM14 cells; test: clonogenicity (colony formation in semi-solid medium); type: cell-based, human; settings: 24h pretreatment
# Experimental: as §1
# (§9) After 7-10d (leukemia cells) or 10-14d (HSPCs), colonies (≥20 cells) were enumerated.
# [4] = test system: MV-4-11 cells; test: as above; type: cell-based, human; settings: 24h pretreatment
# Experimental: as §1, §9
# [5] = test system: HL-60 cells; test: as above; type: cell-based, human; settings: 24h pretreatment
# Experimental: (§10) page 2: Supplementary Figure S3: […] hours. Two B-ALL (KOPN8, SEM) and two AML (MOLM14, THP-1) cell lines were treated with the indicated concentrations of ART- 838 or AS for 24–96 h, then viability determined as in Figure 1A. Data are represented as mean +/– SD. Supplementary Figure S4: […] Colony-forming assays were performed as in Figure 1B in A. K562 and B. HL-60 AML cell lines. Each experiment was performed once in triplicate. Data are represented as mean +/– SD.
# [6] = test system: K562 cells; test: as above; type: cell-based, human; settings: 24h pretreatment
# Experimental: as §10
# [7] = test system: normal human CD34+ HSPCs; test: clonogenicity of normal HSPCs; type: cell-based
# Experimental: Cryopreserved human CD34^+ HSPCs from normal adult donors (Cellular Therapy and Cell Processing Facility, Fred Hutchinson Cancer Center, Seattle, WA) were thawed and cultured for 24h in StemSpanSFEM medium (Stemcell Technologies, Vancouver, BC, Canada) containing 100 ng/ml recombinant human (rh) stem cell factor, 20 ng/ml rh thrombopoietin, and 100 ng/ml rh FLT3 ligand (PeproTech, Rocky Hill, NJ), in the presence of the indicated drug concentrations prior to plating for clonogenic assays.
# Cells pretreated with ART-838, AS, or vehicle for 24h were diluted and plated in MethoCult medium (Stemcell Technologies). After 7-10d (leukemia cells) or 10-14d (HSPCs), colonies (≥20 cells) were enumerated.
# Supplementary Figure S5: Effects of ART-838 and AS on clonogenicity of normal human CD34+ HSPCs. Normal human CD34+ HSPCs were pretreated with the indicated concentrations of ART-838, AS, or vehicle (0.5% DMSO) for 24 h then cultured in semi-solid medium for 10–14d before colonies were enumerated. A. Total hematopoietic colony counts, normalized to vehicle-treated controls (100%) and B. counts of types of colonies, i.e. erythroid (E); granulocyte/macrophage (sum of GM, G and M, combined) and multilineage progenitors (GEMM). Three independent experiments were performed. Data are represented as mean +/– SEM.
# Supplementary Figure S6: ART-838 and AS concentration-response curves for KOPN8 and MOLM14. […]
# [8] = test system: MOLM14 cells; test: apoptosis (Annexin-V/7-AAD flow cytometry); type: cell-based, human; settings: 24h
# Experimental: (§11) A. Quantification of the percentage of early apoptotic cells (Annexin-V+/7-AAD-) from three independent experiments in which cells were stained for apoptosis with 7-AAD and Annexin-V then analyzed by flow cytometry. […] C. […] 16h after addition of drugs, cells were washed and analyzed by flow cytometry for CM-H2DCFDA fluorescence (indicating total ROS generation) in the FL1 channel. Mean Fluorescence Intensity (MFI) was normalized to that of vehicle control (0.5% DMSO) with no pretreatment. […] Viable cell counts, obtained via Trypan Blue dye exclusion, were normalized to vehicle (0.02% DMSO)-treated samples +/– pretreatment.
# Cells were co-stained with […] each 7-AAD and APC-conjugated Annexin-V (BioLegend), in Annexin-V binding buffer and analyzed by flow cytometry. Caspase-3/7 activity was measured using a Caspase-Glo 3/7 Assay (Promega, Madison, WI).
# [9] = test system: MOLM14 cells; test: total ROS generation (CM-H2DCFDA flow cytometry); type: cell-based, human; settings: 16h
# Experimental: as §11
# Cells were preloaded with 5 μM 5-(and-6)-chloromethyl-2′,7′-dichlorodihydrofluorescein diacetate (CM-H2DCFDA, Life Technologies) in PBS (30min, 37°C), then washed before drug treatment. Following 16h incubation with drugs, cells were analyzed by flow cytometry.
# [10] = test system: NSG mice; test: tolerability / maximum-tolerated dose
# Experimental: Blood samples were collected via
# retro-orbital bleeding into EDTA-coated tubes from MOLM14 NSG mice 1 day A-D. and 7 days E-H. after completion of a 5-day drug
# CBCs were determined using a Hemavet 950 analyzer.
# Normal blood samples were obtained from normal, untreated NSG mice (n = 37) over several years.
compound,measurement,setting,value
"C[C@@H]1CCC2[C@@H](C)[C@@H](CC(COP(=O)(Oc3ccccc3)Oc3ccccc3)C[C@H]3O[C@@H]4O[C@@]5(C)CCC6[C@H](C)CCC([C@H]3C)[C@]64OO5)O[C@@H]3O[C@@]4(C)CCC1[C@@]23OO4 (some centres unmarked) [ART-838, artemisinin-derived trioxane diphenylphosphate dimer 838]",IC50,[1]; KOPN8 (B-ALL),0.012 ± 0.002 µM
same,IC90,[2]; MOLM14,0.1 µM
same,IC50,[2],0.025 µM
same,growth inhibition by 48h,"[2]; MOLM14, 0.1 μM ART-838, alamarBlue",90-99%
same,clonogenicity,[3]; ART-838 0.1 μM,completely abolished
same,clonogenicity,[4]; ART-838 0.1 μM,completely abolished
same,clonogenicity,[5],reduced clonogenicity
same,clonogenicity,[6],reduced clonogenicity
same,reduction of normal erythroid and monogranulocytic colony-forming cells,"[7]; 1 μM ART-838, 24h pretreatment",< 25%
same,fold lower concentration than AS achieving similar levels of apoptosis and caspase-3/7 activity,[8],50 fold
same,total cellular ROS levels,[9]; ART-838 0.1 μM,significantly increased total cellular ROS levels
same,chronic MTD,"[10]; 5 days/week by oral gavage, NSG mice",40 to 50 mg/kg
same,dose-limiting toxicity,"[10]; NSG mice, oral gavage",acute weight loss
same,clinical neurotoxicity,"[10]; NSG mice, prior toxicity experiments at approximate chronic MTD",no clinical neurotoxicity was observed
same,complete and differential blood cell counts,"[10]; normal NSG mice, 5-day cycle ART-838 50 mg/kg/d, days 6 and 12",normal complete and differential blood cell counts
same,single dose MTD,"[10]; oral gavage, NSG mice",500 to 600 mg/kg
"C[C@H]1[C@H](OC(=O)CCC(=O)O)O[C@@H]2O[C@@]3(C)CC[C@H]4[C@H](C)CC[C@@H]1[C@@]24OO3 [AS, artesunate]",IC50,"[1]; Homo sapiens, KOPN-8, KOPN8 (B-ALL)",0.459 ± 0.049 µM
same,inhibition at 5 µM,"[2]; Homo sapiens, MOLM-14, 48 h, MOLM14, 5 μM AS, alamarBlue, read-out: growth inhibition by 48h",90 to 99%
same,IC90,"[2]; Homo sapiens, MOLM-14, MOLM14",5 µM
same,IC50,"[2]; Homo sapiens, MOLM-14",0.825 µM
same,clonogenicity,[3]; AS 10 μM,substantially reduced
same,clonogenicity,[4]; AS 10 μM,substantially reduced
same,clonogenicity,[5],reduced clonogenicity
same,clonogenicity,[6],reduced clonogenicity
same,reduction of normal erythroid and monogranulocytic colony-forming cells,"[7]; 10 μM AS, 24h pretreatment",< 25%
same,apoptosis,[8]; AS 5 μM,induced significant apoptosis
same,total cellular ROS levels,[9]; AS 5 μM,significantly increased total cellular ROS levels
same,clinical neurotoxicity,"[10]; mouse, in vivo",no clinical neurotoxicity was observed
same,dose-limiting toxicity,"[10]; mouse, in vivo, po",acute weight loss

# Reference: paper PMC4872784 (Oncotarget, 2016)
